From US10047092B2 (Janssen Pharmaceutica NV, priority 2013, dated 2018)

Each compound was assayed against P2X7 (Homo sapiens (Human), UniProt Q99572) (assay: P2X7 antagonism in human PBMCs (IL-1β release, LPS + Bz-ATP)). Details: 10 μM test compound, LPS 30 ng/ml + 0.5 mM Bz-ATP.
Chain of P2X7 (Q99572 whole entry): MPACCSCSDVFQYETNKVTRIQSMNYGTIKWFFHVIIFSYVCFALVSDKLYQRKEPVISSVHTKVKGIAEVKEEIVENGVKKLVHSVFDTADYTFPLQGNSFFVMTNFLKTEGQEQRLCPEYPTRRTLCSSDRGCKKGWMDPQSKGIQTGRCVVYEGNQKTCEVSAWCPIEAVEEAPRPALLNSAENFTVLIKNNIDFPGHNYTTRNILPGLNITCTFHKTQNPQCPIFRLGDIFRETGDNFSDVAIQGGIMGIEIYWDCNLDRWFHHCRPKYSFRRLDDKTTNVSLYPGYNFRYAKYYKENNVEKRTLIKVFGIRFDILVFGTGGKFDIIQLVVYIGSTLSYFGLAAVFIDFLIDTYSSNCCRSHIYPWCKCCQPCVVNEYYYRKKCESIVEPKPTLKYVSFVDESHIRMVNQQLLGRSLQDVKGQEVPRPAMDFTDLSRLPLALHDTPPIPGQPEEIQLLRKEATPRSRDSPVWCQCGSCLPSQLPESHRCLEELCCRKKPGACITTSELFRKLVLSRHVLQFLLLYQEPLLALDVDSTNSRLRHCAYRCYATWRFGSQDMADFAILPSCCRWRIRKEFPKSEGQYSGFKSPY
Format: cell-based
Method: P2X7 Antagonism in Human Peripheral Blood Mononuclear Cells (PBMCs) and Mouse/Human Whole Blood.
Human blood was collected using a blood donor program. PBMCs were isolated from blood using a Ficoll density gradient technique. Briefly, blood was laid on Ficoll solution and centrifuged at RT for 20 minutes at 2000 rpm. The buffy layer (between red blood cells and plasma) was carefully collected by aspiration, washed with PBS and centrifuged again at 1500 rpm for 15 minutes. The resulting cell pellet was washed and plated on 96 well-plates for experiments. For the Mouse/Human Whole Blood experiments, 150 μl of either mouse or human blood was platted on 96 well-plates. Lipopolysaccharide (LPS) (30 ng/ml) was added to each well and incubated for 1 hour. Test compounds were then added and incubated for 30 minutes. The P2X7 agonist, 2′(3′)-O-(4-benzoylbenzoyl) adenosine 5′-triphosphate (Bz-ATP) was then added at a final concentration of 0.5 mM (PBMC) or 1 mM (blood). Cells were incubated for an additional 1.5 hours. At that point, supernatant was collected and stored for IL-1β assay using manufacturer's protocol for enzyme-linked immunosorbent assay (ELISA). Data was expressed as percent control, where control is defined as the difference in IL-113 release in LPS+Bz-ATP samples and LPS only samples. Data was plotted as response (% control) versus concentration to generate IC50 values. […] In Table 2, when the data cell has been left blank, it is intended to mean that the compound was not tested in that assay.
For `C[C@H]1Cn2c(nnc2-c2cnccn2)C(=O)N1Cc1cccc(Cl)c1Cl` [Example 13, (6S)-7-(2,3-Dichlorobenzyl)-6-methyl-3-pyrazin-2-yl-6,7-dihydro[1,2,4]triazolo[4,3-a]pyrazin-8(5H)-one], the “PBMC 10 μM (% control)” value was 15.4 % control.
For `C[C@H]1Cn2c(nnc2-c2cnccn2)C(=O)N1Cc1cccc(C(F)(F)F)c1Cl` [Example 16, (6S)-7-[2-Chloro-3-(trifluoromethyl)benzyl]-6-methyl-3-pyrazin-2-yl-6,7-dihydro[1,2,4]triazolo[4,3-a]pyrazin-8(5H)-one], the “PBMC 10 μM (% control)” value was 13.4 % control.
For `CC[C@H]1Cn2c(nnc2-c2cnccn2)C(=O)N1Cc1cccc(C(F)(F)F)c1Cl` [Example 71, (6S)-7-[2-Chloro-3-(trifluoromethyl)benzyl]-6-ethyl-3-pyrazin-2-yl-6,7-dihydro[1,2,4]triazolo[4,3-a]pyrazin-8(5H)-one], the “PBMC 10 μM (% control)” value was 1.2 % control.
With `CC(c1cccc(C(F)(F)F)c1Cl)N1C(=O)c2nnc(-c3cnccn3)n2C[C@@H]1C` (stereo partly drawn) [Example 93] the “PBMC 10 μM (% control)” value was 4.5 % control.

Same assay, conditions: P2X7, 10 μM test compound, LPS 30 ng/ml + 0.5 mM Bz-ATP, read-out: PBMC 10 μM (% control)
Work on `O=C1c2nnc(-c3ncccn3)n2C[C@@H](C2CC2)N1Cc1cccc(C(F)(F)F)c1Cl` (single isomer, unassigned) [Example 65, (6R*)-7-[2-Chloro-3-(trifluoromethyl)benzyl]-6-cyclopropyl-3-pyrimidin-2-yl-6,7-dihydro[1,2,4]triazolo[4,3-a]pyrazin-8(5H)-one] yielded a remaining activity at 10 µM of 15.9%.
In the case of `O=C1c2nnc(-c3ncccn3)n2C[C@H](C2CC2)N1Cc1cccc(C(F)(F)F)c1Cl` (single isomer, unassigned) [Example 66, (6S*)-7-[2-Chloro-3-(trifluoromethyl)benzyl]-6-cyclopropyl-3-pyrimidin-2-yl-6,7-dihydro[1,2,4]triazolo[4,3-a]pyrazin-8(5H)-one], the remaining activity at 10 µM is reported as 20.7%.
